Reference: publication PMC7427800 (Scientific Reports, 2020)
Where two headings read alike, the source gives them in different places.

How the values were obtained:
[1] = tested on: acetic acid-induced writhing; assay: acetic acid-induced writhing test; assay type: in vivo, mice; settings: for reduction in the number of writhes / times less effective than morphine (0.5 mg/kg) at equianalgesic doses: mice; for reduction in the number of writhes: 30 min after administration; for antiwrithing response after naltrexone pretreatment: naltrexone 1 mg/kg s.c. 10 min before agonist; for times less effective than morphine (0.5 mg/kg) at equianalgesic doses: writhing assay, s.c.
Method: Male CD1 mice (30–35 g, 7–8 weeks old) were obtained from the Center of Biomodels and Experimental Medicine (CBEM) (Innsbruck, Austria). Mice were group-housed in a temperature-controlled room with a 12 h light/dark cycle and with free access to food and water. All animal studies were conducted in accordance with ethical guidelines and animal welfare standards according to Austrian regulations for animal research and were approved by the Committee of Animal Care of the Austrian Federal Ministry of Science and Research. Test compounds or vehicle were administered by s.c. route in a volume of 10 µL/1 g of body weight.
Writhing was induced in mice by intraperitoneal (i.p.) injection of a 0.6% acetic acid aqueous solution[26]. Drugs or control (vehicle) were s.c. administered, and after 25 min (5 min prior to testing), each animal received i.p. acetic acid solution. Each mouse was placed in individual transparent Plexiglas chambers, and the number of writhes was counted during a 10 min observation period. […] For the antagonism study, naltrexone (1 mg/kg) was s.c. administered 10 min before the opioid agonist, and writhing as assessed as described above. Each experimental group included five to six animals.

human DOR = target: T1, human DOR (Homo sapiens, UniProt P41143); assay type: binding
T1 construct: host or cells: CHO (CHO-hDOR), cell membranes
T1 sequence (P41143 whole entry): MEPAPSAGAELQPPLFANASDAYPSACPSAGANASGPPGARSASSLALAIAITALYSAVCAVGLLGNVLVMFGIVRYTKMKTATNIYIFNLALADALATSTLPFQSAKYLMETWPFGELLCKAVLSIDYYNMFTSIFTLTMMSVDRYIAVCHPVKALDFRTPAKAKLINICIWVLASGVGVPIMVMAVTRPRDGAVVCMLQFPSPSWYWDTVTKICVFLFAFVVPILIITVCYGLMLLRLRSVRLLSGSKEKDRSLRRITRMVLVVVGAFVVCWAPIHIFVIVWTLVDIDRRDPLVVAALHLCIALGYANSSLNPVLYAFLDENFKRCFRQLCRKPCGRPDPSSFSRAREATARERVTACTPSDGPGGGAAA

human KOR = target: T2, human KOR (Homo sapiens, UniProt P41145); assay type: binding
T2 construct: host or cells: CHO (CHO-hKOR), cell membranes
T2 sequence (P41145 whole entry): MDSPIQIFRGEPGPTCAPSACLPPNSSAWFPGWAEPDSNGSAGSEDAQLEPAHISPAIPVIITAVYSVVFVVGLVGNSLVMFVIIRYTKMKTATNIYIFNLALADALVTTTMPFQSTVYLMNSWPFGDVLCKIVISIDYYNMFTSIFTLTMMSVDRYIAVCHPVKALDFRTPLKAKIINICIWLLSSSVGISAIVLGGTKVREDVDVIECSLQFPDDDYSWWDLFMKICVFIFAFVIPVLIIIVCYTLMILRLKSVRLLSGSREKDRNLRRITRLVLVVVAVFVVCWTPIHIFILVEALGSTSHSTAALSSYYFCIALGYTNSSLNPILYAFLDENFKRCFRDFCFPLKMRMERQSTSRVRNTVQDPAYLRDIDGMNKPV

human MOR [2] = target: T3, human MOR (Homo sapiens, UniProt P35372); assay: biochemical; assay type: binding; parameters: host or cells: CHO (CHO-hMOR), cell membranes
T3 sequence (P35372 whole entry): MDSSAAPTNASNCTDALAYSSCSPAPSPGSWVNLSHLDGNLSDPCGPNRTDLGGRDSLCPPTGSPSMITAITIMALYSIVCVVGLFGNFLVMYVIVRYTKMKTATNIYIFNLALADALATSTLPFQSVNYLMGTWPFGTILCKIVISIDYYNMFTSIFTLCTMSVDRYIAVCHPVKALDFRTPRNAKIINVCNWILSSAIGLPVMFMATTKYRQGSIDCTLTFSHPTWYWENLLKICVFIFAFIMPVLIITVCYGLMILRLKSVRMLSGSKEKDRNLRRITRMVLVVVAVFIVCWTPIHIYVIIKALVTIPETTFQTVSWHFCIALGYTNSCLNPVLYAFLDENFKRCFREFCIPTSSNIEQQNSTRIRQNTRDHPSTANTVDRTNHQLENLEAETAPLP

human MOR [3] = target: T3, human MOR; assay: biochemical; assay type: biochemical; parameters: host or cells: CHO (CHO-hMOR), cell membranes; settings: for agonist character at the MOR: CHO-hMOR; for G protein activation %stim: percentage stimulation relative to DAMGO
human MOR [4] = target: T3, human MOR; assay type: cell-based; parameters: host or cells: U2OS (PathHunter U2OS-hMOR-βarrestin2); settings: PathHunter, U2OS-hMOR
dopamine D1 receptor = tested on: dopamine D1 receptor; parameters: method as in PMID 18830156, PMID 30308941; settings: cell-based functional assays; cited from earlier work
[5] = rat, in vivo; cited from earlier work

SMILES	reduction in the number of writhes ([1]; 5 mg/kg s.c.) [%]	antiwrithing response after naltrexone pretreatment [1]	times less effective than morphine (0.5 mg/kg) at equianalgesic doses [1]	specific binding to the human DOR (human DOR)	specific binding to the human KOR (human KOR)	alterations in general behavior (locomotor activity, sedation) (mice, s.c., tested doses (5 mg/kg corydine, 10 mg/kg corydaline))	Ki (human MOR [2]) [nM]	EC50 (human MOR [3]) [nM]	agonist potency, times greater than corydaline (2) (human MOR [3]; [35S]GTPγS binding)	agonist potency, times less potent than DAMGO (human MOR [3]; [35S]GTPγS binding) [times]	agonist character at the MOR (human MOR [3]; [35S]GTPγS binding)	G protein activation %stim (human MOR [3]; [35S]GTPγS binding) [%]	β-arrestin2 recruitment upon activation of the MOR (human MOR [4])	β-arrestin2 recruitment %stim (human MOR [4]; relative to DAMGO, – denotes no measurable activity) [%]	reduction in the number of writhes ([1]; 10 mg/kg s.c.) [%]	alterations in general behavior (locomotor activity, sedation) (mouse, in vivo)	activity at the dopamine D1 receptor (dopamine D1 receptor)	blood–brain barrier crossing [5]
COc1cc2c3c(c1O)-c1c(ccc(OC)c1OC)C[C@@H]3N(C)CC2 [Corydine (1), corydine]	51	antagonized	ca. 10 times	did not specifically bind	did not specifically bind	no major alterations in locomotor activity and no sedation	2820 ± 610	510 ± 110	about 3 times	34	full agonists	102 ± 6	failed to induce β-arrestin2 recruitment					
C[C@@H](NC(=O)[C@@H](N)Cc1ccc(O)cc1)C(=O)NCC(=O)N(C)[C@@H](Cc1ccccc1)C(=O)NCCO [DAMGO, reference compound]												100	effectively recruited β-arrestin2	100				
COc1cc2c(cc1OC)C1C(C)c3ccc(OC)c(OC)c3CN1CC2 (centres unmarked) [Corydaline (2), corydaline]		antagonized	~20 times	did not specifically bind	did not specifically bind		1230 ± 290	1500 ± 440			full agonists	104 ± 6	failed to induce β-arrestin2 recruitment		59	no major alterations in locomotor activity and no sedation	antagonist activity	can effectively cross the blood–brain barrier
